In PMC9697198, “Carbonic Anhydrase Inhibition Activities of Schiff’s Bases Based on Quinazoline-Linked Benzenesulfonamide” (Molecules, 2022):
Several values for one entry are separate records, joined by “and”; a condition that tells them apart may be missing. Equal values may be shown once.

Assays:
[1] = target: hCA XII (Homo sapiens, UniProt O43570); experiment: hCA XII inhibition, stopped-flow assay; assay type: biochemical; conditions: for Selectivity Analysis hCA I/XII / Selectivity Analysis hCA II/XII: selectivity index (SI); for Selectivity Analysis hCA I/XII: ratio of Ki hCA I to Ki hCA XII; for Selectivity Analysis hCA II/XII: ratio of Ki hCA II to Ki hCA XII; for Ki: stopped-flow technique, mean from three different assays, errors ±5–10%
hCA XII, sequence (O43570 25-354): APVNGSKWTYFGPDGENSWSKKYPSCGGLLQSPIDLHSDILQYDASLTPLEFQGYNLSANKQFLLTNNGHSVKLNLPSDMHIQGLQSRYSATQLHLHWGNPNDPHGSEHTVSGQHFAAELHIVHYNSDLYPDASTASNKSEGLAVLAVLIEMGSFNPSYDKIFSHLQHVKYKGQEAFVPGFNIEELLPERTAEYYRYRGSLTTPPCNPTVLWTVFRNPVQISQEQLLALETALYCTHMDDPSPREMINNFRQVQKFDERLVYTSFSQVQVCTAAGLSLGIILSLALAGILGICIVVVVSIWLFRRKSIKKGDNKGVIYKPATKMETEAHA

[2] = target: hCA II (Homo sapiens, UniProt P00918); experiment: hCA II inhibition, stopped-flow assay; assay type: biochemical; conditions: stopped-flow technique; mean from three different assays, errors ±5–10%
[3] = target: hCA I (Homo sapiens, UniProt P00915); experiment: hCA I inhibition, stopped-flow assay; assay type: biochemical; conditions: stopped-flow technique; mean from three different assays, errors ±5–10%
hCA I, sequence (P00915 whole entry): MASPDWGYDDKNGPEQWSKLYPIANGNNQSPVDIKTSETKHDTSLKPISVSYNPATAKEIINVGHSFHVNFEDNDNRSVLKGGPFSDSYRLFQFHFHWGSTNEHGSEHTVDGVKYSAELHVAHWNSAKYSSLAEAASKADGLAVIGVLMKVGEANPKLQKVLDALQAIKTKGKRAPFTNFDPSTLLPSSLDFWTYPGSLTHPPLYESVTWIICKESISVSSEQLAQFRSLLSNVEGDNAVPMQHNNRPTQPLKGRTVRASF

[4] = target: hCA IX (Homo sapiens, UniProt Q16790); experiment: hCA IX inhibition, stopped-flow assay; assay type: biochemical; conditions: for Selectivity Analysis hCA I/IX / Selectivity Analysis hCA II/IX: selectivity index (SI); for Selectivity Analysis hCA I/IX: ratio of Ki hCA I to Ki hCA IX; for Selectivity Analysis hCA II/IX: ratio of Ki hCA II to Ki hCA IX; for Ki: stopped-flow technique, mean from three different assays, errors ±5–10%

Selectivity Analysis hCA I/XII [1] | Selectivity Analysis hCA II/XII [1] | Ki [1] | melting point | Ki [2] | Ki [3] | Selectivity Analysis hCA I/IX [4] | Selectivity Analysis hCA II/IX [4] | Ki [4] | SMILES
28.81 | 5.12 | 63.4 nM | 271 to 272 °C | 325 nM | 1830 nM | 52.5 | 9.33 | 34.8 nM | NS(=O)(=O)c1ccc(CCn2c(SCC(=O)NN=Cc3ccc(Cl)c(Cl)c3)nc3ccccc3c2=O)cc1 [Compound 8, 4-(2-(2-((2-(2-(3,4-Dichlorobenzylidene)hydrazineyl)-2-oxoethyl)thio)-4-oxoquinazolin-3(4H)-yl)ethyl)benzenesulfonamide]
7.35 | 1.55 | 25.4 nM | 299 to 300 °C | 39.5 nM | 187 nM | 6.55 | 1.38 | 28.5 nM | CC(=NNC(=O)CSc1nc2ccccc2c(=O)n1CCc1ccc(S(N)(=O)=O)cc1)c1ccc(F)cc1 [Compound 24, 4-(2-(2-((2-(2-(1-(4-Fluorophenyl)ethylidene)hydrazineyl)-2-oxoethyl)thio)-4-oxoquinazolin-3(4H)-yl)ethyl)benzenesulfonamide]
1.85 | 0.80 | 28.5 nM | 300 to 301 °C | 22.8 nM | 52.8 nM | 0.77 | 0.33 | 68.2 nM | CC(=NNC(=O)CSc1nc2ccccc2c(=O)n1CCc1ccc(S(N)(=O)=O)cc1)c1ccccn1 [Compound 26, 4-(2-(4-Oxo-2-((2-oxo-2-(2-(1-(pyridin-2-yl)ethylidene)hydrazineyl)ethyl)thio)quinazolin-3(4H)-yl)ethyl)benzenesulfonamide]
 |  | 38.4 nM | 296 to 298 °C | 52.6 nM | 152 nM |  |  | 61.7 nM | NS(=O)(=O)c1ccc(CCn2c(SCC(=O)N/N=C/c3ccccc3)nc3ccccc3c2=O)cc1 [Compound 4, 4-(2-(2-((2-(2-Benzylidenehydrazineyl)-2-oxoethyl)thio)-4-oxoquinazolin-3(4H)-yl)ethyl)benzenesulfonamide]
 | 0.61 |  | 210 to 211 °C | 16.9 to 21.3 nM |  |  |  |  | CCOC(=O)CSc1nc2ccccc2c(=O)n1CCc1ccc(S(N)(=O)=O)cc1 [Compound 2, Ethyl 2-((4-oxo-3-(4-sulfamoylphenethyl)-3,4-dihydroquinazolin-2-yl)thio)acetate]
27.64 | 3.72 | 15.9 nM | 308 to 309 °C | 59.3 nM | 439 nM | 75.77 | 10.22 | 5.8 nM | CC(=NNC(=O)CSc1nc2ccccc2c(=O)n1CCc1ccc(S(N)(=O)=O)cc1)c1ccc(N)cc1 [Compound 19, 4-(2-(2-((2-(2-(1-(4-Aminophenyl)ethylidene)hydrazineyl)-2-oxoethyl)thio)-4-oxoquinazolin-3(4H)-yl)ethyl)benzenesulfonamide]

The next lines start with the molecule.

SMILES | Selectivity Analysis hCA I/XII [1] | Selectivity Analysis hCA II/XII [1] | Ki [1] | melting point | Ki [2] | Ki [3] | Selectivity Analysis hCA I/IX [4] | Selectivity Analysis hCA II/IX [4] | Ki [4]
NS(=O)(=O)c1ccc(CCn2c(SCC(=O)NN=Cc3ccccc3[N+](=O)[O-])nc3ccccc3c2=O)cc1 [Compound 13, 4-(2-(2-((2-(2-(2-Nitrobenzylidene)hydrazineyl)-2-oxoethyl)thio)-4-oxoquinazolin-3(4H)-yl)ethyl)benzenesulfonamide] | 46.34 | 26.60 | 21.4 nM | 288 to 289 °C | 569 nM | 992 nM | 16.95 | 9.73 | 58.5 nM
NS(=O)(=O)c1ccc(CCn2c(SCC(=O)NN=Cc3ccc([N+](=O)[O-])cc3)nc3ccccc3c2=O)cc1 [Compound 14, 4-(2-(2-((2-(2-(4-Nitrobenzylidene)hydrazineyl)-2-oxoethyl)thio)-4-oxoquinazolin-3(4H)-yl)ethyl)benzenesulfonamide] | 20.83 | 7.23 | 30.5 nM | 296 to 297 °C | 221 nM | 635 nM | 23.62 | 8.20 | 26.9 nM
CN(C)c1ccc(C=NNC(=O)CSc2nc3ccccc3c(=O)n2CCc2ccc(S(N)(=O)=O)cc2)cc1 [Compound 15, 4-(2-(2-((2-(2-(4-(Dimethylamino)benzylidene)hydrazineyl)-2-oxoethyl)thio)-4-oxoquinazolin-3(4H)-yl)ethyl)benzenesulfonamide] | 85.58 | 12.07 | 6.8 nM | 280 to 281 °C | 82.1 nM | 582 nM | 6.56 | 0.92 | 89.1 nM and 88.6 nM
CC(=NNC(=O)CSc1nc2ccccc2c(=O)n1CCc1ccc(S(N)(=O)=O)cc1)c1ccccc1 [Compound 17, 4-(2-(4-Oxo-2-((2-oxo-2-(2-(1-phenylethylidene)hydrazineyl)ethyl)thio)quinazolin-3(4H)-yl)ethyl)benzenesulfonamide] | 9.78 | 5.31 | 12.7 nM | 260 to 261 °C | 67.5 nM | 124 nM | 2.23 | 1.21 | 55.7 nM
NS(=O)(=O)c1ccc(CCn2c(SCC(=O)NN=Cc3ccccc3Cl)nc3ccccc3c2=O)cc1 [Compound 5, 4-(2-(2-((2-(2-(2-Chlorobenzylidene)hydrazineyl)-2-oxoethyl)thio)-4-oxoquinazolin-3(4H)-yl)ethyl)benzenesulfonamide] | 20.39 | 5.45 | 46.1 nM | 288 to 290 °C | 251 nM | 940 nM | 35.6 | 9.51 | 26.4 nM
NS(=O)(=O)c1ccc(CCn2c(S)nc3ccccc3c2=O)cc1 [Compound 1, 4-(2-(2-mercapto-4-oxoquinazolin-3(4H)-yl)ethyl)benzenesulfonamide] |  |  |  |  | 0.62 nM | 31.5 nM |  |  | 
NS(=O)(=O)c1ccc(CCn2c(SCC(=O)NN=Cc3cccnc3)nc3ccccc3c2=O)cc1 [Compound 16, 4-(2-(4-Oxo-2-((2-oxo-2-(2-(pyridin-3-ylmethylene)hydrazineyl)ethyl)thio)quinazolin-3(4H)-yl)ethyl)benzenesulfonamide] | 10.0 | 1.14 | 20.8 nM | 263 to 264 °C | 23.8 nM | 208 nM | 5.5 | 0.63 | 37.8 nM
CC(=NNC(=O)CSc1nc2ccccc2c(=O)n1CCc1ccc(S(N)(=O)=O)cc1)c1cccnc1 [Compound 27, 4-(2-(4-Oxo-2-((2-oxo-2-(2-(1-(pyridin-3-yl)ethylidene)hydrazineyl)ethyl)thio)quinazolin-3(4H)-yl)ethyl)benzenesulfonamide] | 6.87 | 0.31 | 34.7 nM |  | 10.8 nM | 238 nM | 7.07 | 0.32 | 33.7 nM
CC(=NNC(=O)CSc1nc2ccccc2c(=O)n1CCc1ccc(S(N)(=O)=O)cc1)c1ccc(Br)cc1 [Compound 20, 4-(2-(2-((2-(2-(1-(4-Bromophenyl)ethylidene)hydrazineyl)-2-oxoethyl)thio)-4-oxoquinazolin-3(4H)-yl)ethyl)benzenesulfonamide] | 15.27 | 7.86 | 88.8 nM | 302 to 303 °C | 698 nM | 1360 nM | 13.6 | 7.01 | 99.6 nM
CC(=NNC(=O)CSc1nc2ccccc2c(=O)n1CCc1ccc(S(N)(=O)=O)cc1)c1ccc(Cl)cc1 [Compound 23, 4-(2-(2-((2-(2-(1-(4-Chlorophenyl)ethylidene)hydrazineyl)-2-oxoethyl)thio)-4-oxoquinazolin-3(4H)-yl)ethyl)benzenesulfonamide] |  | 2.56 | 61.2 nM | 278 to 280 °C | 157 nM | 563 nM | 8.67 | 2.41 | 65 nM
CC(=NNC(=O)CSc1nc2ccccc2c(=O)n1CCc1ccc(S(N)(=O)=O)cc1)c1ccc(C)cc1 [Compound 25, 4-(2-(4-Oxo-2-((2-oxo-2-(2-(1-(p-tolyl)ethylidene)hydrazineyl)ethyl)thio)quinazolin-3(4H)-yl)ethyl)benzenesulfonamide] | 10.90 | 2.19 | 57.5 nM | 288 to 290 °C | 126 nM | 627 nM | 14.28 | 2.87 | 43.9 nM
NS(=O)(=O)c1ccc(CCn2c(SCC(=O)NN=Cc3ccc(Cl)cc3Cl)nc3ccccc3c2=O)cc1 [Compound 7, 4-(2-(2-((2-(2-(2,4-Dichlorobenzylidene)hydrazineyl)-2-oxoethyl)thio)-4-oxoquinazolin-3(4H)-yl)ethyl)benzenesulfonamide] | 26.33 | 4.84 | 89.4 nM | 304 to 305 °C | 433 nM | 2350 nM | 107 | 19.67 | 22 nM
